The experiment concerns the target T1, human adenosine A2A receptor (Homo sapiens, UniProt P29274).
T1 construct: expressed in transfected cells; host or cells: CHO cells, Semliki Forest virus expression system; washed membrane preparation
As to the kind of experiment: [3H]-SCH-58261 binding assay, human adenosine A2A receptor (CHO cell membranes, SPA). The note with it: [3H]-SCH-58261 1 nM; membranes of CHO cells expressing human A2A receptor; Ki from IC50 by Cheng-Prussoff equation; read-out: hA2 (pKi) (converted). The protocol:
Human Adenosine A2A Receptor
The human adenosine A2A receptor was recombinantly expressed in chinese hamster ovary (CHO) cells using the semliki forest virus expression system. Cells were harvested, washed twice by centrifugation, homogenized and again washed by centrifugation. The final washed membrane pellet was suspended in a Tris (50 mM) buffer containing 120 mM NaCl, 5 mM KCl, 2 mM CaCl2 and 10 mM MgCl2 (pH 7.4) (buffer A). The [^3H]-SCH-58261 (Dionisotti et al., 1997, Br J Pharmacol 121, 353; 1 nM) binding assay was carried out in 96-well plates in the presence of 2.5 μg of membrane protein, 0.5 mg of Ysi-poly-1-lysine SPA beads and 0.1 U adenosine deaminase in a final volume of 200 μl of buffer A. Non-specific binding was defined using xanthine amine congener (XAC; 2 μM). Compounds were tested at 10 concentrations from 10 μM-0.3 nM. All assays were conducted in duplicate and repeated at least two times. Assay plates were incubated for 1 hour at room temperature before centricentrifugation and then bound ligand determined of test compound using a Packard Topcount scintillation counter. IC50 values, the concentration where 50% of the […] binding is displaced, were calculated using a non-linear curve fitting program and Ki values calculated using the Cheng-Prussoff equation.
Preferred compounds of formula I have a pKi>6.4.
T1 sequence (P29274 whole entry): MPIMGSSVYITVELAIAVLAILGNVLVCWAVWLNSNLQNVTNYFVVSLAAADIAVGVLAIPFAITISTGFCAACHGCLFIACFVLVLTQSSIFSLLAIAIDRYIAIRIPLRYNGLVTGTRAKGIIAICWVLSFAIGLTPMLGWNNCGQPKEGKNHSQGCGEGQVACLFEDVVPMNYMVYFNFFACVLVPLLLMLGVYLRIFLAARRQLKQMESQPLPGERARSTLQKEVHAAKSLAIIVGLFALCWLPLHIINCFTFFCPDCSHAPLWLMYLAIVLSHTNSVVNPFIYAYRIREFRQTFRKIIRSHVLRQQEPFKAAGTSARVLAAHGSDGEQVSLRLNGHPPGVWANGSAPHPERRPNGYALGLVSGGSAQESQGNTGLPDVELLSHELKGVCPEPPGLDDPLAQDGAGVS
`COc1ccc(-c2ccccc2)c2sc(NC(=O)N3CCN(C)CC3)cc12` [Example 7, 4-Methyl-piperazine-1-carboxylic acid (4-methoxy-7-phenyl-benzo[b]thiophen-2-yl)-amide]: the Ki was 240 nM.
Then `COc1ccc(-c2ccccc2)c2sc(NC(=O)N3CCC(CO)CC3)cc12` [Example 6, 4-Hydroxymethyl-piperidine-1-carboxylic acid (4-methoxy-7-phenyl-benzo[b]thiophen-2-yl)-amide], with 97.7 nM; and `COc1ccc(-c2ccccc2)c2sc(NC(=O)N3CCCCC3)cc12` [Example 3, Piperidine-1-carboxylic acid (4-methoxy-7-phenyl-benzo[b]thiophen-2-yl)-amide], with 257 nM.
The figure for `COc1ccc(-c2ccccc2)c2sc(NC(=O)c3ccnc(C)c3)cc12` [Example 9, N-(4-Methoxy-7-phenyl-benzo[b]thiophen-2-yl)-2-methyl-isonicotinamide] is 389 nM.
As to `COc1ccc(-c2ccccc2)c2sc(NC(=O)c3ccc(F)cc3)cc12` [Example 10, 4-Fluoro-N-(4-methoxy-7-phenyl-benzo[b]thiophen-2-yl)-benzamide], the Ki is 43.7 nM.
On to `COc1ccc(-c2ccccc2)c2sc(NC(=O)N3CCOCC3)cc12` [Example 2, Morpholine-4-carboxylic acid (4-methoxy-7-phenyl-benzo[b]thiophen-2-yl)-amide], for which the Ki was 263 nM.
Turning to `COc1ccc(-c2ccccc2)c2sc(NC(=O)N3CCSCC3)cc12` [Example 1, Thiomorpholine-4-carboxylic acid (4-methoxy-7-phenyl-benzo[b]thiophen-2-yl)-amide], the Ki is 155 nM.
As to `COc1ccc(-c2ccccc2)c2sc(NC(=O)c3ccc(C)nc3)cc12` [Example 8, N-(4-Methoxy-7-phenyl-benzo[b]thiophen-2-yl)-6-methyl-nicotinamide], the Ki was 302 nM.
Turning to `COc1ccc(-c2ccccc2)c2sc(NC(=O)N3CCC(O)CC3)cc12` [Example 4, 4-Hydroxy-piperidine-1-carboxylic acid (4-methoxy-7-phenyl-benzo[b]thiophen-2-yl)-amide], the Ki is 126 nM.
For the compound `COc1ccc(-c2ccccc2)c2sc(NC(=O)N3CCC(OC)CC3)cc12` [Example 5, 4-Methoxy-piperidine-1-carboxylic acid (4-methoxy-7-phenyl-benzo[b]thiophen-2-yl)-amide], the Ki was 347 nM.

Values taken from US6730670B2, “7-phenyl-benzo[b]thiophen amide derivatives” (Hoffmann-La Roche Inc., priority 2001, dated 2004).
